Assay [1] has as its system G28A (RNA, aptamer) GGACGCGACCGAAAUGGUGAAGGACGGAUCCAGUGCGAAACACGCACUGUUGAGUAGAGUGUGAGCUCCGUAACUGGUCGCGUC
Description: fluorescence activation titration, Hill fit. To be noted: 100 mM K+, 5 mM Mg2+; 30 nM RNA; 10 mM Tris pH 7.5.

Assay [2] relates to dU50 (RNA, aptamer, 2'-deoxyuridine at 37 (U50 in full-length numbering)) GGGGAGAAGGACGGGUCCAGUGCGAAACACGCACUGUUGAGUAGAGUGUGAGCUCCC
Description: fluorescence activation titration, Hill fit. To be noted: 100 mM K+, 5 mM Mg2+; 30 nM RNA; 10 mM Tris pH 7.5.

With `CC1=N/C(=C\c2cc(F)c(O)c(F)c2)C(=O)N1C`, the KD in assay [1] was 4400 ± 800 nM; in assay [2], 1100 ± 300 nM.

The term KD denotes the equilibrium constant for the complex coming apart.

Source of the values: publication PMC4104137 (2014).
